{"source": "patent US9663562B2", "about": "“Compositions and methods for treating cancer” (Dana-Farber Cancer Institute, Inc., priority 2013, dated 2017)", "type_in_all_cases": "cell-based, human", "key": {"[1]": {"system": "MUC16-positive MIAPACA2 pancreatic cancer cells", "assay": "Viable cell number by trypan blue staining, MIAPACA2 cells", "conditions": "MIAPACA2, 5 microM, 5 days, vs control", "method": "(§1) FIG. 1 illustrates the Effects of MUC16 Inhibitor Peptide (IP-16) on MUC16-positive cancer cells. Human MUC16-positive OVCAR3 ovarian cancer (A), MIAPACA2 pancreatic cancer (B) and ASPC1 pancreatic cancer (C) cells were left untreated (Control) or treated with 5 microM IP-16(RRRRRRRR-CLICGVLVTTRRRKK; SEQ ID NO:5) or CP-16 (RRRRRRRR-ALIAGVLVTTRRRKK; SEQ ID NO:6) for 5 days. Viable cell number was determined by trypan blue staining. The results are expressed as cell number (mean+SD of three determinations).\n(§2) Viable cell number was determined by trypan blue staining."}, "[2]": {"system": "MUC16-positive OVCAR3 ovarian cancer cells", "assay": "Viable cell number by trypan blue staining, OVCAR3 cells", "conditions": "OVCAR3, 5 microM, 5 days, vs control", "method": "as §1, §2"}, "[3]": {"system": "MUC16-positive ASPC1 pancreatic cancer cells", "assay": "Viable cell number by trypan blue staining, ASPC1 cells", "conditions": "ASPC1, 5 microM, 5 days, vs control", "method": "as §1, §2"}, "[4]": {"system": "MUC16-negative HEK293T cells", "assay": "Growth of MUC16-negative control cells"}}, "data": [{"substance": "RRRRRRRR-CLICGVLVTTRRRKK (RRRRRRRRCLICGVLVTTRRRKK) [IP-16]", "values": [{"measurement": "cell number (viable cells)", "setting": "[1]", "value": "significantly reduced"}, {"measurement": "cell number (viable cells)", "setting": "[2]", "value": "significantly reduced"}, {"measurement": "cell number (viable cells)", "setting": "[3]", "value": "significantly reduced"}, {"measurement": "effect on growth", "setting": "[4]", "value": "little, if any, effect"}]}]}
